Converted amounts (≈) assume the structure as drawn. The source made the active and inactive calls. The rule behind the calls is not given here.
Tests used:
Escherichia coli = assay: Antibacterial activity against Escherichia coli ATCC 25922 after 24 hrs by microdilution method; assay type: functional, organism-based
Enterococcus faecalis [1] = assay: Antibacterial activity against vancomycin-resistant Enterococcus faecalis after 24 hrs by microdilution method; assay type: functional
Staphylococcus aureus [2] = assay: Antibacterial activity against Staphylococcus aureus ATCC 29213 after 24 hrs by microdilution method; assay type: functional; settings: ATCC 29213, 24 h
Pseudomonas aeruginosa = assay: Antibacterial activity against Pseudomonas aeruginosa ATCC 27853 after 24 hrs by microdilution method; assay type: functional, organism-based
Staphylococcus aureus [3] = assay: Antibacterial activity against methicillin-resistant Staphylococcus aureus after 24 hrs by microdilution method; assay type: functional
Staphylococcus aureus [4] = assay: Bactericidal activity against methicillin-resistant Staphylococcus aureus after 24 hrs; assay type: functional
Enterococcus faecalis [5] = assay: Bactericidal activity against vancomycin-resistant Enterococcus faecalis after 24 hrs; assay type: functional
Staphylococcus aureus [6] = assay: Bactericidal activity against Staphylococcus aureus ATCC 29213 after 24 hrs; assay type: functional; settings: ATCC 29213, 24 h
HeLa = assay: Cytotoxicity against human HeLa cells after 48 hrs by MTT assay; assay type: functional, cell-based
A549 = assay: Cytotoxicity against human A549 cells after 48 hrs by MTT assay; assay type: functional, cell-based
PC-3 = assay: Cytotoxicity against human PC3 cells after 48 hrs by MTT assay; assay type: functional, cell-based

## COc1ccc(OC)c(C(c2c[nH]c3ccc(Br)cc23)c2c[nH]c3ccc(Br)cc23)c1
Escherichia coli
  Activity: inactive
Enterococcus faecalis [1]
  MIC: > 256 µg/mL
Staphylococcus aureus [2]
  MIC: 128 µg/mL (≈ 237 µM)
Pseudomonas aeruginosa
  Activity: inactive
Staphylococcus aureus [3]
  MIC: 256 µg/mL (≈ 474 µM)

## Oc1ccc(C(c2c[nH]c3ccc(Br)cc23)c2c[nH]c3ccc(Br)cc23)cc1
Escherichia coli
  Activity: inactive
Enterococcus faecalis [1]
  MIC: 2 µg/mL (≈ 4.03 µM)
Staphylococcus aureus [4]
  MBC: 1 µg/mL (≈ 2.02 µM)
Staphylococcus aureus [2]
  MIC: 0.5 µg/mL (≈ 1.01 µM)
Enterococcus faecalis [5]
  MBC: 2 µg/mL (≈ 4.03 µM)
Pseudomonas aeruginosa
  Activity: inactive
Staphylococcus aureus [3]
  MIC: 1 µg/mL (≈ 2.02 µM)
Staphylococcus aureus [6]
  MBC: 0.5 µg/mL (≈ 1.01 µM)

## CCOc1ccc2c(c1)OC(C)(C)CC2(c1c[nH]c2ccc(Br)cc12)c1c[nH]c2ccc(Br)cc12
Escherichia coli
  Activity: inactive
Enterococcus faecalis [1]
  MIC: 32 µg/mL (≈ 53.8 µM)
Staphylococcus aureus [4]
  MBC: 32 µg/mL (≈ 53.8 µM)
Staphylococcus aureus [2]
  MIC: 8 µg/mL (≈ 13.5 µM)
Enterococcus faecalis [5]
  MBC: 32 µg/mL (≈ 53.8 µM)
Pseudomonas aeruginosa
  Activity: inactive
Staphylococcus aureus [3]
  MIC: 32 µg/mL (≈ 53.8 µM)
Staphylococcus aureus [6]
  MBC: 8 µg/mL (≈ 13.5 µM)

## CC1(C)CC(c2c[nH]c3ccc(Br)cc23)(c2c[nH]c3ccc(Br)cc23)c2ccc(O)cc2O1
Escherichia coli
  Activity: inactive
Enterococcus faecalis [1]
  MIC: 4 µg/mL (≈ 7.06 µM)
Staphylococcus aureus [4]
  MBC: 2 µg/mL (≈ 3.53 µM)
Staphylococcus aureus [2]
  MIC: 2 µg/mL (≈ 3.53 µM)
Enterococcus faecalis [5]
  MBC: 4 µg/mL (≈ 7.06 µM)
Pseudomonas aeruginosa
  Activity: inactive
Staphylococcus aureus [3]
  MIC: 2 µg/mL (≈ 3.53 µM)
Staphylococcus aureus [6]
  MBC: 2 µg/mL (≈ 3.53 µM)

## O=[N+]([O-])c1ccc2[nH]cc(C(c3ccc(F)cc3)c3c[nH]c4ccc([N+](=O)[O-])cc34)c2c1
Escherichia coli
  Activity: inactive
Enterococcus faecalis [1]
  MIC: > 256 µg/mL
Staphylococcus aureus [2]
  MIC: > 256 µg/mL
Pseudomonas aeruginosa
  Activity: inactive
Staphylococcus aureus [3]
  MIC: > 256 µg/mL

## CC(c1ccccc1)(c1c[nH]c2ccc(Br)cc12)c1c[nH]c2ccc(Br)cc12
Escherichia coli
  Activity: inactive
Enterococcus faecalis [1]
  MIC: > 256 µg/mL
Staphylococcus aureus [2]
  MIC: > 256 µg/mL
Pseudomonas aeruginosa
  Activity: inactive
Staphylococcus aureus [3]
  MIC: > 256 µg/mL

## CN(C)c1ccc(C(c2c[nH]c3ccc(Br)cc23)c2c[nH]c3ccc(Br)cc23)cc1
Escherichia coli
  Activity: inactive
Enterococcus faecalis [1]
  MIC: 256 µg/mL (≈ 489 µM)
Staphylococcus aureus [2]
  MIC: 64 µg/mL (≈ 122 µM)
Pseudomonas aeruginosa
  Activity: inactive
Staphylococcus aureus [3]
  MIC: 128 µg/mL (≈ 245 µM)

## CCCCCCCC(c1c[nH]c2ccc(Br)cc12)c1c[nH]c2ccc(Br)cc12
Escherichia coli
  Activity: inactive
Enterococcus faecalis [1]
  MIC: > 256 µg/mL
Staphylococcus aureus [2]
  MIC: > 256 µg/mL
Pseudomonas aeruginosa
  Activity: inactive
Staphylococcus aureus [3]
  MIC: > 256 µg/mL

## COc1ccc(Br)cc1C(c1c[nH]c2ccc(Br)cc12)c1c[nH]c2ccc(Br)cc12
Escherichia coli
  Activity: inactive
Enterococcus faecalis [1]
  MIC: 256 µg/mL (≈ 435 µM)
Staphylococcus aureus [2]
  MIC: 128 µg/mL (≈ 217 µM)
Pseudomonas aeruginosa
  Activity: inactive
Staphylococcus aureus [3]
  MIC: 256 µg/mL (≈ 435 µM)

## Fc1ccc(Cn2cc(C(c3ccc(F)cc3)c3cn(Cc4ccc(F)cc4)c4ccc(Br)cc34)c3cc(Br)ccc32)cc1
HeLa
  IC50: 1.1 µM
Enterococcus faecalis [1]
  MIC: > 128 µg/mL
Staphylococcus aureus [2]
  MIC: > 128 µg/mL
A549
  IC50: 8.7 µM
PC-3
  IC50: 36.5 µM
Staphylococcus aureus [3]
  MIC: > 128 µg/mL

## O=C(O)c1cn(C2CC2)c2cc(N3CCNCC3)c(F)cc2c1=O [CIPROFLOXACIN]
Enterococcus faecalis [1]
  MIC: 64 µg/mL (≈ 193 µM)
Staphylococcus aureus [4]
  MBC: 32 µg/mL (≈ 96.6 µM)
Staphylococcus aureus [2]
  MIC: 0.25 µg/mL (≈ 0.754 µM)
Enterococcus faecalis [5]
  MBC: 64 µg/mL (≈ 193 µM)
Staphylococcus aureus [6]
  MBC: 0.5 µg/mL (≈ 1.51 µM)

## O=[N+]([O-])c1ccc(C(c2c[nH]c3ccc(Br)cc23)c2c[nH]c3ccc(Br)cc23)cc1
Escherichia coli
  Activity: inactive
Enterococcus faecalis [1]
  MIC: 8 µg/mL (≈ 15.2 µM)
Staphylococcus aureus [4]
  MBC: 8 µg/mL (≈ 15.2 µM)
Staphylococcus aureus [2]
  MIC: 4 µg/mL (≈ 7.62 µM)
Enterococcus faecalis [5]
  MBC: 8 µg/mL (≈ 15.2 µM)
Pseudomonas aeruginosa
  Activity: inactive
Staphylococcus aureus [3]
  MIC: 8 µg/mL (≈ 15.2 µM)
Staphylococcus aureus [6]
  MBC: 4 µg/mL (≈ 7.62 µM)

## N#Cc1ccc2[nH]cc(C(c3ccc(F)cc3)c3c[nH]c4ccc(C#N)cc34)c2c1
Escherichia coli
  Activity: inactive
Enterococcus faecalis [1]
  MIC: 8 µg/mL (≈ 20.5 µM)
Staphylococcus aureus [4]
  MBC: 1 µg/mL (≈ 2.56 µM)
Staphylococcus aureus [2]
  MIC: 1 µg/mL (≈ 2.56 µM)
Enterococcus faecalis [5]
  MBC: 8 µg/mL (≈ 20.5 µM)
Pseudomonas aeruginosa
  Activity: inactive
Staphylococcus aureus [3]
  MIC: 1 µg/mL (≈ 2.56 µM)
Staphylococcus aureus [6]
  MBC: 1 µg/mL (≈ 2.56 µM)

## Oc1cccc(C(c2c[nH]c3ccc(Br)cc23)c2c[nH]c3ccc(Br)cc23)c1
Escherichia coli
  Activity: inactive
Enterococcus faecalis [1]
  MIC: 4 µg/mL (≈ 8.06 µM)
Staphylococcus aureus [4]
  MBC: 2 µg/mL (≈ 4.03 µM)
Staphylococcus aureus [2]
  MIC: 1 µg/mL (≈ 2.02 µM)
Enterococcus faecalis [5]
  MBC: 8 µg/mL (≈ 16.1 µM)
Pseudomonas aeruginosa
  Activity: inactive
Staphylococcus aureus [3]
  MIC: 2 µg/mL (≈ 4.03 µM)
Staphylococcus aureus [6]
  MBC: 1 µg/mL (≈ 2.02 µM)

## COc1ccc(C(c2c[nH]c3ccc(Br)cc23)c2c[nH]c3ccc(Br)cc23)cc1
Escherichia coli
  Activity: inactive
Enterococcus faecalis [1]
  MIC: 32 µg/mL (≈ 62.7 µM)
Staphylococcus aureus [4]
  MBC: 32 µg/mL (≈ 62.7 µM)
Staphylococcus aureus [2]
  MIC: 16 µg/mL (≈ 31.4 µM)
Enterococcus faecalis [5]
  MBC: 32 µg/mL (≈ 62.7 µM)
Pseudomonas aeruginosa
  Activity: inactive
Staphylococcus aureus [3]
  MIC: 32 µg/mL (≈ 62.7 µM)
Staphylococcus aureus [6]
  MBC: 32 µg/mL (≈ 62.7 µM)

## N#Cc1ccc2[nH]cc(C(c3ccc(O)cc3)c3c[nH]c4ccc(C#N)cc34)c2c1
Escherichia coli
  Activity: inactive
Enterococcus faecalis [1]
  MIC: > 256 µg/mL
Staphylococcus aureus [2]
  MIC: > 256 µg/mL
Pseudomonas aeruginosa
  Activity: inactive
Staphylococcus aureus [3]
  MIC: > 256 µg/mL

## COc1ccc(S(=O)(=O)n2cc(C(c3ccc(F)cc3)c3cn(S(=O)(=O)c4ccc(OC)cc4)c4ccc(Br)cc34)c3cc(Br)ccc32)cc1
HeLa
  IC50: > 100 µM
Enterococcus faecalis [1]
  MIC: > 128 µg/mL
Staphylococcus aureus [2]
  MIC: > 128 µg/mL
A549
  IC50: > 100 µM
PC-3
  IC50: > 100 µM
Staphylococcus aureus [3]
  MIC: > 128 µg/mL

## CC(C)(c1c[nH]c2ccc(Br)cc12)c1c[nH]c2ccc(Br)cc12
Escherichia coli
  Activity: inactive
Enterococcus faecalis [1]
  MIC: > 256 µg/mL
Staphylococcus aureus [2]
  MIC: > 256 µg/mL
Pseudomonas aeruginosa
  Activity: inactive
Staphylococcus aureus [3]
  MIC: > 256 µg/mL

## CCCC(c1c[nH]c2ccc(Br)cc12)c1c[nH]c2ccc(Br)cc12
Escherichia coli
  Activity: inactive
Enterococcus faecalis [1]
  MIC: > 256 µg/mL
Staphylococcus aureus [2]
  MIC: > 256 µg/mL
Pseudomonas aeruginosa
  Activity: inactive
Staphylococcus aureus [3]
  MIC: > 256 µg/mL
